Source: patent US20030108622A1, “Cancer treatment composition and method using signal transduction modulators and natural plant essential oils as synergists for conventional treatments” (EcoSMART Technologies, Inc., priority 1998, published 2003)

Tests used:
Type in all cases: cell-based, human
[1] = test system: MCF-7 cells; experiment: Dose-response of signal transduction modulators on E2-induced cell proliferation, 3H-thymidine incorporation (Example 2)
Experimental: Dose-response of Signal Transduction Modulators on E2-Induced Cell Proliferation To determine the impact of two key signaling proteins, cAMP/PKA system and tyrosine kinase family member, c-Src kinase (p^src60) on estrogen-induced cell proliferation in human epithelial breast cancer cells, MCF-7 cells were cultured in growth DMEM medium supplemented with 10% fetal bovine serum (FBS). At 85% confluence, cells were sub-cultured in 5% FBS serum stripped medium, phenol red free for 24 hours prior to the treatment of the test chemical. […] Tamoxifen (TX) was used in parallel as positive control. Cell proliferation was measured using ^3H-thymidine incorporation. The study was done in triplicate and a control was used with solvent only. Control received solvent only at <0.1% ethanol.

[2] = test system: MCF-7 cells; experiment: Dose-response of tamoxifen on E2-induced cell proliferation, 3H-thymidine incorporation (Example 1)
Experimental: Dose-Response of Tamoxifen on Estrogen (E2)-Induced Cell Proliferation MCF-7 cells were cultured in growth DMEM medium supplemented with 10% fetal bovine serum (FBS). […] […] Cell proliferation was measured using ^3H-thymidine incorporation. The study was done in triplicate and a control was used with solvent only. Control received solvent only at <0.1% ethanol.
In Table 1, percentage of control is calculated either based on the control (solvent only, ethanol 0.1%) or based on the E2 values which is between parenthesis.

[3] = test system: MCF-7 cells; experiment: Effect of FK or GM on TX efficacy against E2-induced cell proliferation, 3H-thymidine incorporation (Example 3)
Experimental: In another experiment cells were treated with 10 nM E2 (=2.7 ng E2/ml) with three concentraion of GM (1, 5 and 10 ng/ml) 24 hours prior to cell proliferation assessment. Tamoxifen (TX) was used in parallel as positive control. Cell proliferation was measured using ^3H-thymidine incorporation. The study was done in triplicate and a control was used with solvent only. Control received solvent only at <0.1% ethanol.

[4] = test system: MCF-7 cells; experiment: Time-course of E2-induced cell growth, cell count using trypan blue exclusion (Example 4); conditions: TX 1 μM alone + E2 10 nM; calculated on control value, FIG. 4
Experimental: Effect of cAMP Inducer on Efficacy and Stability of Tamoxifen MCF-7 cells were cultured in growth DMEM medium supplemented with 10% fetal bovine serum (FBS). At 85% confluence, cells were sub-cultured in 5% FBS serum stripped medium, phenol red free for 24 hours prior to the treatment of the test chemical. Cells were treated with 10 nM E2 (=2.7 ng E2/ml) with and without a mixture of 1 μM FK and 1 μM TX. Cell growth was measured 1, 2 and 5 days following treatment. Cell growth was determined by cell count using trypan blue exclusion. The study was done in duplicate and a control was used with solvent only. Control received solvent only at <. 1% ethanol.

[5] = test system: MCF-7 cells; experiment: Cell growth without E2, 5 days, cell count using trypan blue exclusion (Examples 5-7); conditions: mixtures with TX; conclusion from the Examples, FIGS. 6-9
Experimental: MCF-7 cells were cultured in growth DMEM medium supplemented with 10% fetal bovine serum (FBS). At 85% confluence, cells were sub-cultured in 5% FBS serum stripped medium, phenol red free for 24 hours prior to the treatment of the test chemical. Cells were treated with and without a mixture of either 5 μM FK […] and 1 μM TX (=0.56 ug TX/ml) or a mixture of 1 μM TX (=0.56 ug TX/ml) and 1 μM FK. Cell growth was measured 5 days following treatment. Cell growth was determined by cell count using trypan blue exclusion. The study was done in duplicate and a control was used with solvent only. Control received solvent only at <0.1% ethanol.
MCF-7 cells were cultured in growth DMEM medium supplemented with 10% fetal bovine serum (FBS). At 85% confluence, cells were sub-cultured in 5% FBS serum stripped medium, phenol red free for 24 hours prior to the treatment of the test chemical. Cells were treated with and without a mixture of either 5 ng GM/ml and 5 μM TX (=2.8 ug TX/ml) or a mixture of 10 ng GM/ml and 5 μM TX (=2.8 ug TX/ml). Cell growth was measured 5 days following treatment. Cell growth was determined by cell count using trypan blue exclusion. […]
MCF-7 cells were cultured in growth DMEM medium supplemented with 10% fetal bovine serum (FBS). […] Cell growth was measured 5 days following treatment. Cell growth was determined by cell count using trypan blue exclusion. […]

[6] = TX 5 μM + E2 10 nM, based on solvent control
[7] = TX 5 μM + E2 10 nM, value in parenthesis, based on E2 value
[8] = TX 10 μM + E2 10 nM, based on solvent control

C=C[C@@]1(C)CC(=O)[C@]2(O)[C@@]3(C)[C@@H](O)CCC(C)(C)[C@@H]3[C@H](O)[C@H](OC(C)=O)[C@@]2(C)O1 [FK, forskolin]
% protection ([1]; FK 1 μM in the presence of 10 nM E2): 66% | % protection ([1]; FK 5 μM in the presence of 10 nM E2): 78% | % protection ([1]; FK 10 μM in the presence of 10 nM E2): 86% | activity at 1 µM ([1]; Homo sapiens, MCF7, FK 1 μM in the presence of 10 nM E2, read-out: 3H-Thymidine incorporation/μg protein (% of control)): 34% | activity at 5 µM ([1]; Homo sapiens, MCF7, FK 5 μM in the presence of 10 nM E2, read-out: 3H-Thymidine incorporation/μg protein (% of control)): 22% | activity at 10 µM ([1]; Homo sapiens, MCF7, FK 10 μM in the presence of 10 nM E2, read-out: 3H-Thymidine incorporation/μg protein (% of control)): 14%

CC/C(=C(\c1ccccc1)c1ccc(OCCN(C)C)cc1)c1ccccc1 [TX, tamoxifen]
activity at 1 µM ([2]; Homo sapiens, MCF7, TX 1 μM, without E2, based on solvent control): 42% | activity at 5 µM ([2]; Homo sapiens, MCF7, TX 5 μM, without E2, based on solvent control): 36% | activity at 10 µM ([2]; Homo sapiens, MCF7, TX 10 μM, without E2, based on solvent control): 33% | 3H-thymidine incorporation dpm ([2]; TX 1 μM + E2 10 nM): 12336 dpm | 3H-thymidine incorporation dpm/μg protein ([2]; TX 1 μM + E2 10 nM): 379.6 dpm/μg protein | 3H-thymidine incorporation % of control ([2]; TX 1 μM + E2 10 nM, based on solvent control): 124% | % protection (based on E2 value) ([2]; TX 1 μM + E2 10 nM, value in parenthesis, based on E2 value): (21) % | 3H-thymidine incorporation dpm ([2]; TX 1 μM, without E2): 2586 dpm | 3H-thymidine incorporation dpm/μg protein ([2]; TX 1 μM, without E2): 129.3 dpm/μg protein | % protection ([2]; TX 1 μM, without E2): 58% | 3H-thymidine incorporation dpm ([2]; TX 5 μM + E2 10 nM): 4007 dpm | 3H-thymidine incorporation dpm/μg protein ([2]; TX 5 μM + E2 10 nM): 260.2 dpm/μg protein | 3H-thymidine incorporation % of control [2, 6]: 85% | % protection [2, 6]: 15% | 3H-thymidine incorporation % of control (based on E2 value) [2, 7]: 53% | % protection (based on E2 value) [2, 7]: 47% | 3H-thymidine incorporation dpm ([2]; TX 5 μM, without E2): 1848 dpm | 3H-thymidine incorporation dpm/μg protein ([2]; TX 5 μM, without E2): 112.0 dpm/μg protein | % protection ([2]; TX 5 μM, without E2): 64% | 3H-thymidine incorporation dpm ([2]; TX 10 μM + E2 10 nM): 3239 dpm | 3H-thymidine incorporation dpm/μg protein ([2]; TX 10 μM + E2 10 nM): 118.5 dpm/μg protein | 3H-thymidine incorporation % of control [2, 8]: 39% | % protection [2, 8]: 61% | % protection (based on E2 value) ([2]; TX 10 μM + E2 10 nM, value in parenthesis, based on E2 value): 75% | 3H-thymidine incorporation dpm ([2]; TX 10 μM, without E2): 1545 dpm | 3H-thymidine incorporation dpm/μg protein ([2]; TX 10 μM, without E2): 99.8 dpm/μg protein | % protection ([2]; TX 10 μM, without E2): 67% | antagonistic action against the E2-induced cell proliferation ([2]; TX 1-10 μM, Table 1): dose-dependent | potency against the E2-induced cell proliferation ([2]; low concentrations 0.56 ug/ml to 2.8 ug/ml (=1 - 5 μM)): potent | antiestrogenic action ([1]; 1-10 μM, Table 2): dose-dependent | activity at 1 µM ([1]; Homo sapiens, MCF7, TX 1 μM in the presence of 10 nM E2, read-out: 3H-Thymidine incorporation/μg protein (% of control)): 79% | activity at 5 µM ([1]; Homo sapiens, MCF7, TX 5 μM in the presence of 10 nM E2, read-out: 3H-Thymidine incorporation/μg protein (% of control)): 54% | activity at 10 µM ([1]; Homo sapiens, MCF7, TX 10 μM in the presence of 10 nM E2, read-out: 3H-Thymidine incorporation/μg protein (% of control)): 25% | % protection ([1]; TX 1 μM in the presence of 10 nM E2): 21% | % protection ([1]; TX 5 μM in the presence of 10 nM E2): 46% | % protection ([1]; TX 10 μM in the presence of 10 nM E2): 75% | protection against the biological activity of E2 ([3]; 1 μM TX alone, FIG. 2): ~25% | protection against the E2-induced cancer cell growth ([3]; 5 μM TX alone, FIG. 2): 45% | activity at 5 µM ([3]; Homo sapiens, MCF7, Table 4: 5 μM TX + E2, E2 10 nM = 100, read-out: 3H-Thymidine incorporation/μg protein (% of control)): 54% | % protection ([3]; Table 4: 5 μM TX + E2 (TX alone)): 46% | time over which the E2 action is antagonized [4]: up to 48 hr

COc1cccc(-c2cc(=O)c3ccccc3o2)c1N [PD98059]
synergy with the anticancer activity of tamoxifen in breast cancer cells [5]: synergize the anticancer activity of tamoxifen

COC1=C2C[C@@H](C)C[C@H](OC)[C@H](O)[C@@H](C)/C=C(\C)[C@H](OC(N)=O)[C@@H](OC)/C=C\C=C(/C)C(=O)NC(=CC1=O)C2=O [GM, geldanamycin]
3H-Thymidine incorporation/μg protein (% of control) ([1]; GM 1 ng/ml in the presence of 10 nM E2): no effect | 3H-Thymidine incorporation/μg protein (% of control) ([1]; GM 5 ng/ml in the presence of 10 nM E2): no effect | inhibition of the E2-induced cell proliferation ([1]; GM 10 ng/ml): did not inhibit | % protection ([1]; GM 10 ng/ml in the presence of 10 nM E2): 6% | activity at 0.01 µg/mL ([1]; Homo sapiens, MCF7, GM 10 ng/ml in the presence of 10 nM E2, read-out: 3H-Thymidine incorporation/μg protein (% of control)): 94% | activity at 0.001 µg/mL ([3]; Homo sapiens, MCF7, Table 4: GM 1 ng/ml, E2 10 nM = 100, read-out: 3H-Thymidine incorporation/μg protein (% of control)): 100% | activity at 0.005 µg/mL ([3]; Homo sapiens, MCF7, Table 4: GM 5 ng/ml, E2 10 nM = 100, read-out: 3H-Thymidine incorporation/μg protein (% of control)): 100% | activity at 0.01 µg/mL ([3]; Homo sapiens, MCF7, Table 4: GM 10 ng/ml, E2 10 nM = 100, read-out: 3H-Thymidine incorporation/μg protein (% of control)): 90% | % protection ([3]; Table 4: GM 1 ng/ml, E2 10 nM = 100): 0% | % protection ([3]; Table 4: GM 5 ng/ml, E2 10 nM = 100): 0% | % protection ([3]; Table 4: GM 10 ng/ml, E2 10 nM = 100): 10%
